Blank lines part the entries; values can stand above or below the compound they belong to.
What was measured:
[1] = target: BDNF/NT-3 growth factors receptor (Homo sapiens) (UniProt Q16620); experiment: Selectivity interaction (KinaseProfiler screening (Millipore)) EUB0000601a NTRK2; details: at 3 µM
[2] = target: Myosin light chain kinase, smooth muscle (Homo sapiens, UniProt Q15746); experiment: Selectivity interaction (Kinase panel (Invitrogen)) EUB0000639a MYLK; details: at 200 nM
[3] = target: Serine/threonine-protein kinase N1 (Homo sapiens, UniProt Q16512); experiment: Selectivity interaction (ActivX KiNativ screen (kinase selectivity in THP-1 cell lysates)) EUB0000639a PKN1; assay type: subcellular; details: lysate, at 0.04 µM
Sequence of Serine/threonine-protein kinase N1 (Q16512 2-942 limits assumed): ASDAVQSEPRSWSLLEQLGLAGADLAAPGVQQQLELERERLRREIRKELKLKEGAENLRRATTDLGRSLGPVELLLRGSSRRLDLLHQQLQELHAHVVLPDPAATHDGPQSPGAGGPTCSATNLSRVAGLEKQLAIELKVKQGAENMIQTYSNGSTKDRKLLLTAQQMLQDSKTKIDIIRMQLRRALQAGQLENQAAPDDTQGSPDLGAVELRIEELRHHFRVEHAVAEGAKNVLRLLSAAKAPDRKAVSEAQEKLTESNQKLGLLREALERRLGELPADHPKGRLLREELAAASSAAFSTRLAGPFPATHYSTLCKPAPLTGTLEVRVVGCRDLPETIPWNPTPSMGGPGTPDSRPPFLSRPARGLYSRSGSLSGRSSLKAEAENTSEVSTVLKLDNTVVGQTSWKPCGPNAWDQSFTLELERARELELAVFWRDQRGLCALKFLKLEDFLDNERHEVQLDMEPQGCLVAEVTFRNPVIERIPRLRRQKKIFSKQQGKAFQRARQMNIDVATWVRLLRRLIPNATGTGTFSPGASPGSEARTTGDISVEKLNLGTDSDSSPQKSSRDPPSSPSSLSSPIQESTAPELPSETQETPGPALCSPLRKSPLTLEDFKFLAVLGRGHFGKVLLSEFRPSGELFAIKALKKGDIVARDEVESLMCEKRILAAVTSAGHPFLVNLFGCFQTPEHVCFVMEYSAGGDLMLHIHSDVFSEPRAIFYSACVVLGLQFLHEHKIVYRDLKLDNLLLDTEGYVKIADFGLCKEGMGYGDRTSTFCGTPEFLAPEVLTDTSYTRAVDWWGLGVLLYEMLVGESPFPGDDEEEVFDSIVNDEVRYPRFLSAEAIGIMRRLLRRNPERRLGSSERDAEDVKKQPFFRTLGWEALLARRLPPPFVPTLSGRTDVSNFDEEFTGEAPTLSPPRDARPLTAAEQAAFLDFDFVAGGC

[4] = target: Mast/stem cell growth factor receptor Kit (Homo sapiens, UniProt P10721)
Sequence of Mast/stem cell growth factor receptor Kit (P10721 whole entry): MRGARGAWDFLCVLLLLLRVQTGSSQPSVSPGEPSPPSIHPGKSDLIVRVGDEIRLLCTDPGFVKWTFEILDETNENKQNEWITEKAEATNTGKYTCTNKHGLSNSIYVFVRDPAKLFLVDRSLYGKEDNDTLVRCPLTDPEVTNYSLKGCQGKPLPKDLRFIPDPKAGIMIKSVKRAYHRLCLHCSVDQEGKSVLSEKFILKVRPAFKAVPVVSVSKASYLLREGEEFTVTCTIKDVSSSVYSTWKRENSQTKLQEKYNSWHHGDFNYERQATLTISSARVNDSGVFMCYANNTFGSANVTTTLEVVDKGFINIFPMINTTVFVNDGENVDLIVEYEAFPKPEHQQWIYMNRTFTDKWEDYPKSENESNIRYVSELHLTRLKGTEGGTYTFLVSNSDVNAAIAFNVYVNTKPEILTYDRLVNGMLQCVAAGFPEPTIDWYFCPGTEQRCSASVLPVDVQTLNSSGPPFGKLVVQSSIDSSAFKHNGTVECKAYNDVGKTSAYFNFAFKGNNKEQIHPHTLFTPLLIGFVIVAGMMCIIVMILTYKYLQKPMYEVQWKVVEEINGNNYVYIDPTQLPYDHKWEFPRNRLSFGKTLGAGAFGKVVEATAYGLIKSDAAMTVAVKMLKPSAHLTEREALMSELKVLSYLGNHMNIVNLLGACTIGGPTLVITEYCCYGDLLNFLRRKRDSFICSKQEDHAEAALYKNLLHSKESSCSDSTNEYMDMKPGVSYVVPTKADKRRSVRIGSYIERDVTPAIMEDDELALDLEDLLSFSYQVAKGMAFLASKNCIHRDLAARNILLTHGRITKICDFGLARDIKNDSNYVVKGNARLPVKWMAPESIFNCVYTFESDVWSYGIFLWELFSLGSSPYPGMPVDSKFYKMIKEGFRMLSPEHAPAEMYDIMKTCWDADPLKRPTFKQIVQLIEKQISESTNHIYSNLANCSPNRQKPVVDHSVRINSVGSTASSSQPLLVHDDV

[5] = target: T1, Mitogen-activated protein kinase kinase kinase 5 (Homo sapiens) (UniProt Q99683); experiment: Selectivity interaction (ActivX KiNativ screen (ex vivo kinase selectivity in human PBMCs)) EUB0001619a MAP3K5; assay type: cell-based; details: PBMC, at 1 µM
T1 sequence (whole entry): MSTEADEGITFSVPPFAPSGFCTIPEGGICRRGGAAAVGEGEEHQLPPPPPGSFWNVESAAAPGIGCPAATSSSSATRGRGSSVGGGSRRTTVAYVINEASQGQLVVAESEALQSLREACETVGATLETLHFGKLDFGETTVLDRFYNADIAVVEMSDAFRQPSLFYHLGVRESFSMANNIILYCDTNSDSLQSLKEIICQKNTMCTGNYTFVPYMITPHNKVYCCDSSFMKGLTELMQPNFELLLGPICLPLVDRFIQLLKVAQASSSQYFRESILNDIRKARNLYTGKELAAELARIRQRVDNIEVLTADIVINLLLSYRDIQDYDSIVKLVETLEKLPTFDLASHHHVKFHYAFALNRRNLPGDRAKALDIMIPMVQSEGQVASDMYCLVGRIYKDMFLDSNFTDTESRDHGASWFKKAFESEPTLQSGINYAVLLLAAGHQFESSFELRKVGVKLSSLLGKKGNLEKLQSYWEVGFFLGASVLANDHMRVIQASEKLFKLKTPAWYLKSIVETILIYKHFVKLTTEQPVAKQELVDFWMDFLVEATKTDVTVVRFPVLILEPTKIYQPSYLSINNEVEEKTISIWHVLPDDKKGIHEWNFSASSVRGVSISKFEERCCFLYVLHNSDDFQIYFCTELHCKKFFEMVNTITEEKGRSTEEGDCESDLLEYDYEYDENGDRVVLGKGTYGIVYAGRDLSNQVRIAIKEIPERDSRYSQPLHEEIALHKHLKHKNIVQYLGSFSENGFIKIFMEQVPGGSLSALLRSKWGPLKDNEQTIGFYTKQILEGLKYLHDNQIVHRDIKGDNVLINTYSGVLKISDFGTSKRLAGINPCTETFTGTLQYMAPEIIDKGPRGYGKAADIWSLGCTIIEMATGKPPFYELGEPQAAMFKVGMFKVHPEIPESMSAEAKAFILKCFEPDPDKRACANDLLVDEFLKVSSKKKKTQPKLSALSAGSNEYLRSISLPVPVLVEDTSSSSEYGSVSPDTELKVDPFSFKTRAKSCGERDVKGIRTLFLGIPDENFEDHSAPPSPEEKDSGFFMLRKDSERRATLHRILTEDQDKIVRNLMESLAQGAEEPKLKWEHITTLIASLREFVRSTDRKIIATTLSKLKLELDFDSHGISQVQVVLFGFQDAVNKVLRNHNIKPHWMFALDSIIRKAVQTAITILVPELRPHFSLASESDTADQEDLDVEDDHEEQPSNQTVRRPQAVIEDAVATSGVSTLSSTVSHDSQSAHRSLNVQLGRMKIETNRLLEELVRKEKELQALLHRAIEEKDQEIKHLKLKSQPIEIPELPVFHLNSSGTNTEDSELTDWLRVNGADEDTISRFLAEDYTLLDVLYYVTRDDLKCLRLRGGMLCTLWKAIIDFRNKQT

[6] = target: T2, Cyclin-G-associated kinase (Homo sapiens) (UniProt O14976); experiment: Selectivity interaction (KinomeScan (DiscoverX)) EUB0000607a GAK; details: at 10 µM
T2 sequence (whole entry): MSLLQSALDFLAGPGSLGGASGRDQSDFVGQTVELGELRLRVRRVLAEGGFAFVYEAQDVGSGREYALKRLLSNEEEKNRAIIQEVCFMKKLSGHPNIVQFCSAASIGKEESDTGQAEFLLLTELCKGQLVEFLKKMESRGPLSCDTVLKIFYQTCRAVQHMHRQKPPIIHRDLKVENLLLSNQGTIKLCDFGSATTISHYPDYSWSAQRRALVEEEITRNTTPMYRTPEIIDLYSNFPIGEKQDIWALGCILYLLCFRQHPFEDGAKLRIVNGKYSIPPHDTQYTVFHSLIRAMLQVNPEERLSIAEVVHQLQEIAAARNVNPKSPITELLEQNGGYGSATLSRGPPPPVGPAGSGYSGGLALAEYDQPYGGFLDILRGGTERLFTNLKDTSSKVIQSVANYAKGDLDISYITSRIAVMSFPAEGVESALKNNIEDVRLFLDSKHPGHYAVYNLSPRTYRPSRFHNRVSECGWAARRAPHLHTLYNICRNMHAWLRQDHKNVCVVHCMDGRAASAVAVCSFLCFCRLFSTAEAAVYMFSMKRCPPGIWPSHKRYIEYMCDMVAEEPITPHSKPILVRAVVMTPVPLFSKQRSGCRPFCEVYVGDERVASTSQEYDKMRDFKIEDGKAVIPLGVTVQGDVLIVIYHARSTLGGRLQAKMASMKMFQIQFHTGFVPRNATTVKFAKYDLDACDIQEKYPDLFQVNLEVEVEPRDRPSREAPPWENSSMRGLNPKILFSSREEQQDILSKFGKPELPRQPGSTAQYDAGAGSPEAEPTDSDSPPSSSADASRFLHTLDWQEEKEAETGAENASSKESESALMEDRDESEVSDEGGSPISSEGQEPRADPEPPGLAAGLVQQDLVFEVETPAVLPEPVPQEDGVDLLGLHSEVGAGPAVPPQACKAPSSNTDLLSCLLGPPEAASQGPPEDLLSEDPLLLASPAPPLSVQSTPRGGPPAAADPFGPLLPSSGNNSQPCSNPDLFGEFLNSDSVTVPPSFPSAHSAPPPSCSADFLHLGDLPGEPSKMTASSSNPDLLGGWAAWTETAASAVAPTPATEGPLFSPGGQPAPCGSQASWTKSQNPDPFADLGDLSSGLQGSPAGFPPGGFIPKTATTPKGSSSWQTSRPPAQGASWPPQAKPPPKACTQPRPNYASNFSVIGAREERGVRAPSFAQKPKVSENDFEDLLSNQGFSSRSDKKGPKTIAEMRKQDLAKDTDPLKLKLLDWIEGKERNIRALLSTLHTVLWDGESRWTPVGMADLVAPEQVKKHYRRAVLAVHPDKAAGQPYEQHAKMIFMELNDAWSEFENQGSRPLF

Sequence of Myosin light chain kinase, smooth muscle (Q15746 whole entry): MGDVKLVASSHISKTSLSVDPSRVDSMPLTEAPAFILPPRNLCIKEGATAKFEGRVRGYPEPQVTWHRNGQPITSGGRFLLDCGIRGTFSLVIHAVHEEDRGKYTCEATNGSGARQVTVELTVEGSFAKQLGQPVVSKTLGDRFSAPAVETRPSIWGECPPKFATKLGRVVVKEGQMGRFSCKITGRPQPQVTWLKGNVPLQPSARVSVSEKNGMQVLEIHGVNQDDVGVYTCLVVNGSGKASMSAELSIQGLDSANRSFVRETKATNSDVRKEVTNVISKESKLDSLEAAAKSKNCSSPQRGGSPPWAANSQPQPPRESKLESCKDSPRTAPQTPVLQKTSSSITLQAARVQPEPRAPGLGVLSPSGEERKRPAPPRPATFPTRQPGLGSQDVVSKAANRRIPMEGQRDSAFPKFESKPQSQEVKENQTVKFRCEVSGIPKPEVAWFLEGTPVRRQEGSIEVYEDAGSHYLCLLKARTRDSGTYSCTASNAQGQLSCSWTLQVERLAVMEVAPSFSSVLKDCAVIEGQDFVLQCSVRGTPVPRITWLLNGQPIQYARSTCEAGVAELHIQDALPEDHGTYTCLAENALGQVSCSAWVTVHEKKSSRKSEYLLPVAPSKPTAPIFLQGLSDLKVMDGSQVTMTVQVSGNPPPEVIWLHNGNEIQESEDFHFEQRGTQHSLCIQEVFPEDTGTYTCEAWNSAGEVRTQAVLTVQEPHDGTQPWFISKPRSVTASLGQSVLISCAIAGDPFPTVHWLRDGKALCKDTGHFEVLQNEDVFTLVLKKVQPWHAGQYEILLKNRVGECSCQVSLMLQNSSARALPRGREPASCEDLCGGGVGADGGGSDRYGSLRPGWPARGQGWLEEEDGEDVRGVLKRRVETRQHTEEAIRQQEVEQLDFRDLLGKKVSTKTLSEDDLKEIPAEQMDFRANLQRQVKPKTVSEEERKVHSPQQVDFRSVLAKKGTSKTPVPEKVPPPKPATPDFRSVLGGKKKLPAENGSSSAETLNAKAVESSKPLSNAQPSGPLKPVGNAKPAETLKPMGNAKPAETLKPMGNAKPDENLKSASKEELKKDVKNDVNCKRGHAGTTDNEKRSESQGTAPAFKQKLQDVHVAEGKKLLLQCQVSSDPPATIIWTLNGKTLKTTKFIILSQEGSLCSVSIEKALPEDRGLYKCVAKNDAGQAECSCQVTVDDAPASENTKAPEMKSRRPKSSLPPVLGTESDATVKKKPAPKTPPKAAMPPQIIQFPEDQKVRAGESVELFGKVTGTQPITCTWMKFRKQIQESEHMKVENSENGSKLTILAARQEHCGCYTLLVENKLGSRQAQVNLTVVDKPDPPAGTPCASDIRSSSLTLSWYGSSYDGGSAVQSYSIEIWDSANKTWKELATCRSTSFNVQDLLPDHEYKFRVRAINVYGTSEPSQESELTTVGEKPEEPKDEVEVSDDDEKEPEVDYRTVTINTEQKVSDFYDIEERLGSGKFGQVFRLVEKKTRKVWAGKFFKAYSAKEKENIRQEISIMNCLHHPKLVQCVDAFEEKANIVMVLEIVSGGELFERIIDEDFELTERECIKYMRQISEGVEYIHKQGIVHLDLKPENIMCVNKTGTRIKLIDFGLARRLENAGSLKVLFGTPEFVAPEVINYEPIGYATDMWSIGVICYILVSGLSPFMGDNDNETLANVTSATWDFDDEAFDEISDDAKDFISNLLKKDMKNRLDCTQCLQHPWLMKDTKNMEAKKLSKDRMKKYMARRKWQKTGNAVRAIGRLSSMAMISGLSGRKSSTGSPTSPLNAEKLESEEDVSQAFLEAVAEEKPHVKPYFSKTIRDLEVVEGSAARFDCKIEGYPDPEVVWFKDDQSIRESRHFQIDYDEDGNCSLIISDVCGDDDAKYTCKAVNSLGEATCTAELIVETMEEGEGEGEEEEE
Sequence of BDNF/NT-3 growth factors receptor (Homo sapiens) (Q16620 32-822 limits assumed): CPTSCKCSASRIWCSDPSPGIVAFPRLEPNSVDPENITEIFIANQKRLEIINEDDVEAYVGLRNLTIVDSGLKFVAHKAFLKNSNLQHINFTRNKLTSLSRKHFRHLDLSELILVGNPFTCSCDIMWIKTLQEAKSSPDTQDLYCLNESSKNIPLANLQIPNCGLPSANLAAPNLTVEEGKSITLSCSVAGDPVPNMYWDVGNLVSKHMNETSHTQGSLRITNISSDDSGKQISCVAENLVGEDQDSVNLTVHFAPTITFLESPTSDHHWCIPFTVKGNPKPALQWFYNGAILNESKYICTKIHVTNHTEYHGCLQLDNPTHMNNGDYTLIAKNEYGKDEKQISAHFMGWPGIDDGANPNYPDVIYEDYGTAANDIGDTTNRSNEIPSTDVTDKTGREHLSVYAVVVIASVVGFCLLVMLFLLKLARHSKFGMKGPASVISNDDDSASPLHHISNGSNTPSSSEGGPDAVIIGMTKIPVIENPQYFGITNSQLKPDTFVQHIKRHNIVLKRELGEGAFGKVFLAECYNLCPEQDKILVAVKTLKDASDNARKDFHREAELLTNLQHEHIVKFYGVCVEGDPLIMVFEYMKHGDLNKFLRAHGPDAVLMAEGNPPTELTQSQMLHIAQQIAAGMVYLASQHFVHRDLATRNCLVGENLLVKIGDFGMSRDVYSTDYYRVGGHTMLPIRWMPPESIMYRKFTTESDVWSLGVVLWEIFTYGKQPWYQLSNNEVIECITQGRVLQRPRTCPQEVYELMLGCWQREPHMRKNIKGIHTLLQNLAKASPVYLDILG

SMILES: CCc1cc(Nc2nccc(-c3c(-c4ccc(OC)c(C(=O)Nc5c(F)cccc5F)c4)nc4ccccn34)n2)c(OC)cc1N1CCC(N2CCN(S(C)(=O)=O)CC2)CC1
% of inhibition [1]: 47%

SMILES: N#Cc1cccc(-c2c[nH]c3ncnc(N4CCOCC4)c23)c1
% of inhibition [5]: 21%

SMILES: CNC(=O)Nc1ccc(-c2nc(N3CC4CCC(C3)O4)c3cnn(C4CCC5(CC4)OCCO5)c3n2)cc1
% of control [6]: 75%

The next lines start with the values.

% of inhibition [2]: 1%
% of inhibition [3]: -5.1%
SMILES: CC[C@@H]1[C@H](F)C(=O)N[C@@H]1COc1nccc2cc(C(N)=O)c(OC)cc12 [ZIMLOVISERTIB]

IC50 [4]: > 10 µM
SMILES: CCc1cccc(CC)c1NC(=O)c1nn(C)c2c1CCc1cnc(Nc3ccc(C(=O)NC4CCN(C)CC4)cc3OC(F)(F)F)nc1-2

— ChEMBL document CHEMBL5465560, “Selectivity Literature for EUbOPEN Chemogenomic Library” (2024)
